Laboratory results: ChEMBL document CHEMBL1201862, “PubChem BioAssay data set” (2004)
Values joined by “and” are separate entries in the source; they are usually repeats but may differ in a detail not shown here. Equal values may be shown once.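 Cells were grown in 96-well plates and exposed to each compound for 48 hours at five concentrations; endpoints were interpolated linearly between bracketing concentrations, or set to the highest concentration if not reached. GI50 is the concentration that inhibits growth by half.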 Active and inactive are the calls of the source. No stated cut-off is given here; in the data, active = GI50 up to about 1.1 µM and inactive = higher.

Experiments:
Experiment in all cases: inhibition of tumour cell growth, NCI panel, 48 h
RXF 393 = system: RXF 393
SW-620 = system: SW-620
MDA-N = system: MDA-N
HOP-92 = system: HOP-92
HCC 2998 = system: HCC 2998
EKVX = system: EKVX
A549 = system: A549
NCI-H460 = system: NCI-H460
HT-29 = system: HT-29
786-0 = system: 786-0
NCI-H522 = system: NCI-H522
OVCAR-3 = system: OVCAR-3
T47D = system: T47D
UACC-257 = system: UACC-257
SK-MEL-28 = system: SK-MEL-28
OVCAR-8 = system: OVCAR-8
SF-539 = system: SF-539
SF-295 = system: SF-295
NCI-H226 = system: NCI-H226
M14 = system: M14
A498 = system: A498
Malme-3M = system: Malme-3M
SNB-19 = system: SNB-19
UACC-62 = system: UACC-62
HCT-116 = system: HCT-116
U-251 = system: U-251
DU-145 = system: DU-145
OVCAR-5 = system: OVCAR-5
MDA-MB-435 = system: MDA-MB-435
SF-268 = system: SF-268
KM12 = system: KM12
UO-31 = system: UO-31
NCI-H23 = system: NCI-H23
HCT-15 = system: HCT-15
HOP-62 = system: HOP-62
K562 = system: K562
MCF7 = system: MCF7
CCRF-CEM = system: CCRF-CEM
NCI/ADR-RES = system: NCI/ADR-RES
MOLT-4 = system: MOLT-4
PC-3 = system: PC-3
MDA-MB-231 = system: MDA-MB-231
COLO 205 = system: COLO 205
ACHN = system: ACHN
TK-10 = system: TK-10
HL-60 = system: HL-60
SK-MEL-5 = system: SK-MEL-5
SK-OV-3 = system: SK-OV-3
SN12C = system: SN12C
SR = system: SR
LOX IMVI = system: LOX IMVI
CAKI-1 = system: CAKI-1
RPMI-8226 = system: RPMI-8226
IGROV-1 = system: IGROV-1
SK-MEL-2 = system: SK-MEL-2
SNB-75 = system: SNB-75
Hs-578T = system: Hs-578T
OVCAR-4 = system: OVCAR-4

Question: Which results are given for CC(=O)OCC1OC(n2c(C)c(C(C)=O)c(-c3ccco3)c(C#N)c2=S)C(OC(C)=O)C(OC(C)=O)C1OC(C)=O (stereo not given)?
Answer: GI50 (RXF 393): > 100 µM (inactive); GI50 (SW-620): > 100 µM (inactive); GI50 (MDA-N): > 100 µM (inactive); GI50 (HOP-92): 15.6 µM (inactive); GI50 (HCC 2998): > 100 µM (inactive); GI50 (EKVX): > 100 µM (inactive); GI50 (A549): > 100 µM (inactive); GI50 (NCI-H460): > 100 µM (inactive); GI50 (HT-29): > 100 µM (inactive); GI50 (786-0): > 100 µM (inactive); GI50 (NCI-H522): > 100 µM (inactive); GI50 (OVCAR-3): > 100 µM (inactive); GI50 (T47D): > 100 µM (inactive); GI50 (UACC-257): > 100 µM (inactive); GI50 (SK-MEL-28): > 100 µM (inactive); GI50 (OVCAR-8): > 100 µM (inactive); GI50 (SF-539): > 100 µM (inactive); GI50 (SF-295): > 100 µM (inactive); GI50 (NCI-H226): > 100 µM (inactive); GI50 (M14): > 100 µM (inactive); GI50 (A498): 85.1 µM (inactive); GI50 (Malme-3M): > 100 µM (inactive); GI50 (SNB-19): > 100 µM (inactive); GI50 (UACC-62): > 100 µM (inactive); GI50 (HCT-116): > 100 µM (inactive); GI50 (U-251): > 100 µM (inactive); GI50 (DU-145): > 100 µM (inactive); GI50 (OVCAR-5): > 100 µM (inactive); GI50 (MDA-MB-435): > 100 µM (inactive); GI50 (SF-268): > 100 µM (inactive); GI50 (KM12): > 100 µM (inactive); GI50 (UO-31): < 0.01 µM (active); GI50 (NCI-H23): > 100 µM (inactive); GI50 (HCT-15): > 100 µM; GI50 (HOP-62): > 100 µM (inactive); GI50 (K562): > 100 µM (inactive) and 51.1 µM (inactive); GI50 (MCF7): > 100 µM (inactive); GI50 (CCRF-CEM): > 100 µM (inactive) and 53.2 µM (inactive); GI50 (NCI/ADR-RES): > 100 µM (inactive); GI50 (MOLT-4): 60 µM (inactive); GI50 (PC-3): > 100 µM (inactive); GI50 (MDA-MB-231): > 100 µM (inactive); GI50 (COLO 205): > 100 µM (inactive); GI50 (ACHN): > 100 µM (inactive); GI50 (TK-10): > 100 µM (inactive); GI50 (HL-60): > 100 µM (inactive); GI50 (SK-MEL-5): 78.5 µM (inactive); GI50 (SK-OV-3): > 100 µM (inactive); GI50 (SN12C): > 100 µM (inactive); GI50 (SR): > 100 µM (inactive); GI50 (LOX IMVI): 64.3 µM (inactive)

Question: What does the source list for CC(=O)Nc1c(C(=N)C#N)ncn1CCO?
Answer: GI50 (RXF 393): > 100 µM (inactive); GI50 (CAKI-1): > 100 µM (inactive); GI50 (SW-620): > 100 µM (inactive); GI50 (MDA-N): > 100 µM (inactive); GI50 (HOP-92): > 100 µM (inactive); GI50 (HCC 2998): > 100 µM (inactive); GI50 (EKVX): > 100 µM (inactive); GI50 (A549): > 100 µM (inactive); GI50 (NCI-H460): > 100 µM (inactive); GI50 (HT-29): > 100 µM (inactive); GI50 (786-0): > 100 µM (inactive); GI50 (NCI-H522): > 100 µM (inactive); GI50 (OVCAR-3): > 100 µM (inactive); GI50 (T47D): > 100 µM (inactive); GI50 (UACC-257): > 100 µM (inactive); GI50 (SK-MEL-28): > 100 µM (inactive); GI50 (OVCAR-8): > 100 µM (inactive); GI50 (SF-539): > 100 µM (inactive); GI50 (SF-295): > 100 µM (inactive); GI50 (NCI-H226): > 100 µM (inactive); GI50 (M14): > 100 µM (inactive); GI50 (A498): > 100 µM (inactive); GI50 (Malme-3M): > 100 µM (inactive); GI50 (SNB-19): > 100 µM (inactive); GI50 (RPMI-8226): > 100 µM (inactive); GI50 (UACC-62): > 100 µM (inactive); GI50 (HCT-116): > 100 µM (inactive); GI50 (U-251): > 100 µM (inactive); GI50 (DU-145): > 100 µM (inactive); GI50 (OVCAR-5): > 100 µM (inactive); GI50 (IGROV-1): > 100 µM (inactive); GI50 (MDA-MB-435): > 100 µM (inactive); GI50 (SF-268): > 100 µM (inactive); GI50 (KM12): > 100 µM (inactive); GI50 (NCI-H23): > 100 µM (inactive); GI50 (HCT-15): > 100 µM; GI50 (HOP-62): > 100 µM (inactive); GI50 (K562): > 100 µM (inactive); GI50 (SK-MEL-2): > 100 µM (inactive); GI50 (MCF7): > 100 µM (inactive); GI50 (SNB-75): > 100 µM (inactive); GI50 (CCRF-CEM): > 100 µM (inactive); GI50 (NCI/ADR-RES): > 100 µM (inactive); GI50 (Hs-578T): > 100 µM (inactive); GI50 (PC-3): > 100 µM (inactive); GI50 (MDA-MB-231): > 100 µM (inactive); GI50 (COLO 205): > 100 µM (inactive); GI50 (ACHN): > 100 µM (inactive); GI50 (TK-10): > 100 µM (inactive); GI50 (SK-MEL-5): > 100 µM (inactive); GI50 (SK-OV-3): > 100 µM (inactive); GI50 (OVCAR-4): > 100 µM (inactive); GI50 (SN12C): > 100 µM (inactive); GI50 (LOX IMVI): > 100 µM (inactive)
